Results published in publication PMC5285354, “Cationic Net Charge and Counter Ion Type as Antimicrobial Activity Determinant Factors of Short Lipopeptides” (Frontiers in Microbiology, 2017).
Values after ≈ are worked out from the molar mass of the structure shown. Where a SMILES comes first, the peptide text is derived from it. The star is where a group is joined. Palmitoyl = CCCCCCCCCCCCCCCC(=O)*; Myristoyl = CCCCCCCCCCCCCC(=O)*

How the values were obtained:
Format in all cases: cell-based
[1] = test system: Aspergillus brasiliensis (ATCC 16404); conditions: ATCC 16404, 48 h
In short: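 CLSI broth microdilution: bacteria in Mueller-Hinton broth at 10^5 cfu/mL inoculum, 18 h at 37°C; fungi in Sabouraud Dextrose broth at 10^3 cfu/mL, 48 h at 25°C. MIC (μg/mL) is the lowest lipopeptide concentration inhibiting visible growth; triplicate on three days.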

[2] = test system: Bacillus subtilis (ATCC 6633); conditions: for MIC Bacillus subtillis: ATCC 6633, 18 h; for MBC Bacillus subtillis: ATCC 6633, 24 h
In short: (§1)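 Lowest lipopeptide concentration (μg/mL) with no observable growth gave the MIC, alongside MBC/MFC, by CLSI microbroth dilution. Fungi: Sabouraud dextrose broth, 10^3 cfu/mL start, 25°C for 48 h; bacteria: MH broth, 10^5 cfu/mL, 37°C for 18 h. Run in triplicate, three separate days.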

[3] = test system: Candida albicans (ATCC 10231); conditions: ATCC 10231, 48 h
In short: (§2)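 MIC in μg/mL, read as the lowest lipopeptide level with no observable growth. Microbroth dilution followed CLSI guidance, using MH broth, 10^5 cfu/mL and 18 h at 37°C for bacterial strains, or Sabouraud Dextrose broth, 10^3 cfu/mL and 48 h at 25°C for yeasts.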

[4] = test system: Candida tropicalis (PCM 2681); conditions: PCM 2681, 48 h
In short: as §2

[5] = test system: Enterococcus faecalis (ATCC 29212); conditions: for MBC Enterococcus fecalis, lipopeptides without TFA counter ion / MIC Enterococcus fecalis / MIC Enterococcus fecalis, lipopeptides without TFA counter ion: ATCC 29212, 18 h; for MBC Enterococcus fecalis: ATCC 29212, 24 h
In short: as §1

[6] = test system: Escherichia coli (ATCC 25922); conditions: for MBC Escherichia coli, lipopeptides without TFA counter ion / MIC Escherichia coli / MIC Escherichia coli, lipopeptides without TFA counter ion: ATCC 25922, 18 h; for MBC Escherichia coli: ATCC 25922, 24 h
In short: as §2

[7] = test system: Klebsiella pneumoniae (ATCC 700603); conditions: for MBC Klebsiella pneumoniae, lipopeptides without TFA counter ion / MIC Klebsiella pneumoniae / MIC Klebsiella pneumoniae, lipopeptides without TFA counter ion: ATCC 700603, 18 h; for MBC Klebsiella pneumoniae: ATCC 700603, 24 h
In short: as §2

[8] = test system: Proteus vulgaris (PCM 2668); conditions: 18 h
In short: as §2

[9] = test system: Pseudomonas aeruginosa (ATCC 9027); conditions: ATCC 9027, 18 h
In short: as §2

[10] = test system: Staphylococcus aureus (ATCC 25923); conditions: for MBC Staphylococcus aureus, lipopeptides without TFA counter ion / MIC Staphylococcus aureus / MIC Staphylococcus aureus, lipopeptides without TFA counter ion: ATCC 25923, 18 h; for MBC Staphylococcus aureus: ATCC 25923, 24 h
In short: as §2

[11] = test system: Staphylococcus epidermidis (PCM 2118); conditions: for MIC Staphylococcus epidermidis: PCM 2118, 18 h; for MBC Staphylococcus epidermidis: PCM 2118, 24 h
In short: as §1

[12] = test system: human red blood cells; conditions: 1 h
Method: The hemolytic activity of the lipopeptides was determined by exposing human red blood cells (4% v/v) to tested compounds at graded concentrations. Red blood cells were obtained from a healthy donor. EDTA was used to prevent the blood clotting. The plasma was removed via centrifugation and the erythrocytes were washed three times with PBS. The red blood cells were suspended in PBS and incubated with different concentrations of lipopeptides at 37°C for 1 h and centrifuged for 5 min at 1000 × g. The supernatants were transferred to a sterile 96-well plate and hemoglobin release was measured with an Epoch microplate spectrophotometer (BioTek, USA) by recording the absorbance at 550 nm. A 0.1% Triton X-100 solution was used as the positive control (100% of hemolysis) and pure PBS as the negative (0% of hemolysis). Minimum hemolytic concentration (MHC) was taken as the lowest concentration which induced 10% of hemolysis.

[13] = test system: Pseudomonas aeruginosa (ATCC 9027); conditions: ATCC 9027, 24 h
[14] = test system: Proteus vulgaris (PCM 2668); conditions: 24 h
[15] = test system: Candida albicans (ATCC 10231)

CCCCCCCCCCCCCC(=O)N[C@@H](CCCCN)C(=O)NCC(=O)N[C@@H](CCCCN)C(=O)NCC(N)=O [C14-KGKG-NH2] (Myristoyl-KGKG-NH2)
MFC Aspergillus brasiliensis [1]: 128 µg/mL (≈ 214 µM)
MIC Aspergillus brasiliensis [1]: 128 µg/mL (≈ 214 µM)
MIC Bacillus subtillis [2]: 16 µg/mL (≈ 26.8 µM)
MBC Bacillus subtillis [2]: 16 µg/mL (≈ 26.8 µM)
MFC Candida albicans [3]: 128 µg/mL (≈ 214 µM)
MIC Candida albicans [3]: 128 µg/mL (≈ 214 µM)
MIC Candida albicans, lipopeptides without TFA counter ion [3]: 256 µg/mL (≈ 428 µM)
MFC Candida tropicalis [4]: 512 µg/mL (≈ 856 µM)
MIC Candida tropicalis [4]: 512 µg/mL (≈ 856 µM)
MBC Enterococcus fecalis, lipopeptides without TFA counter ion [5]: 64 µg/mL (≈ 107 µM)
MIC Enterococcus fecalis [5]: 64 µg/mL (≈ 107 µM)
MIC Enterococcus fecalis, lipopeptides without TFA counter ion [5]: 64 µg/mL (≈ 107 µM)
MBC Enterococcus fecalis [5]: 64 µg/mL (≈ 107 µM)
MBC Escherichia coli, lipopeptides without TFA counter ion [6]: 128 µg/mL (≈ 214 µM)
MIC Escherichia coli [6]: 128 µg/mL (≈ 214 µM)
MIC Escherichia coli, lipopeptides without TFA counter ion [6]: 128 µg/mL (≈ 214 µM)
MBC Escherichia coli [6]: 128 µg/mL (≈ 214 µM)
MBC Klebsiella pneumoniae, lipopeptides without TFA counter ion [7]: 128 µg/mL (≈ 214 µM)
MIC Klebsiella pneumoniae [7]: 128 µg/mL (≈ 214 µM)
MIC Klebsiella pneumoniae, lipopeptides without TFA counter ion [7]: 128 µg/mL (≈ 214 µM)
MBC Klebsiella pneumoniae [7]: 128 µg/mL (≈ 214 µM)
MIC Proteus vulgaris [8]: >512 µg/mL
MIC Pseudomonas aeruginosa [9]: 64 µg/mL (≈ 107 µM)
MBC Staphylococcus aureus, lipopeptides without TFA counter ion [10]: 64 µg/mL (≈ 107 µM)
MIC Staphylococcus aureus [10]: 64 µg/mL (≈ 107 µM)
MIC Staphylococcus aureus, lipopeptides without TFA counter ion [10]: 64 µg/mL (≈ 107 µM)
MBC Staphylococcus aureus [10]: 128 µg/mL (≈ 214 µM)
MIC Staphylococcus epidermidis [11]: 32 µg/mL (≈ 53.5 µM)
MBC Staphylococcus epidermidis [11]: 32 µg/mL (≈ 53.5 µM)
Hemolysis HC10 (MHC), concentration of lipopeptide inducing 10% of hemolysis [12]: 512 µg/mL
MBC Pseudomonas aeruginosa [13]: 128 µg/mL (≈ 214 µM)
MBC Proteus vulgaris [14]: >512 µg/mL
MFC Candida albicans, lipopeptides without TFA counter ion [15]: 256 µg/mL (≈ 428 µM)

CCCCCCCCCCCCCCCC(=O)N[C@@H](CCCCN)C(=O)N[C@@H](CCCCN)C(=O)N[C@@H](CCCCN)C(N)=O [C16-KKK-NH2]
MFC Aspergillus brasiliensis [1]: 128 µg/mL (≈ 200 µM)
MIC Aspergillus brasiliensis [1]: 128 µg/mL (≈ 200 µM)
MIC Bacillus subtillis [2]: 8 µg/mL (≈ 12.5 µM)
MBC Bacillus subtillis [2]: 8 µg/mL (≈ 12.5 µM)
MFC Candida albicans [3]: 128 µg/mL (≈ 200 µM)
MIC Candida albicans [3]: 128 µg/mL (≈ 200 µM)
MIC Candida albicans, lipopeptides without TFA counter ion [3]: 128 µg/mL (≈ 200 µM)
MFC Candida tropicalis [4]: 128 µg/mL (≈ 200 µM)
MIC Candida tropicalis [4]: 128 µg/mL (≈ 200 µM)
MBC Enterococcus fecalis, lipopeptides without TFA counter ion [5]: 8 µg/mL (≈ 12.5 µM)
MIC Enterococcus fecalis [5]: 16 µg/mL (≈ 25 µM)
MIC Enterococcus fecalis, lipopeptides without TFA counter ion [5]: 8 µg/mL (≈ 12.5 µM)
MBC Enterococcus fecalis [5]: 16 µg/mL (≈ 25 µM)
MBC Escherichia coli, lipopeptides without TFA counter ion [6]: 8 µg/mL (≈ 12.5 µM)
MIC Escherichia coli [6]: 8 µg/mL (≈ 12.5 µM)
MIC Escherichia coli, lipopeptides without TFA counter ion [6]: 4 µg/mL (≈ 6.25 µM)
MBC Escherichia coli [6]: 16 µg/mL (≈ 25 µM)
MBC Klebsiella pneumoniae, lipopeptides without TFA counter ion [7]: 4 µg/mL (≈ 6.25 µM)
MIC Klebsiella pneumoniae [7]: 4 µg/mL (≈ 6.25 µM)
MIC Klebsiella pneumoniae, lipopeptides without TFA counter ion [7]: 4 µg/mL (≈ 6.25 µM)
MBC Klebsiella pneumoniae [7]: 4 µg/mL (≈ 6.25 µM)
MIC Proteus vulgaris [8]: >512 µg/mL
MIC Pseudomonas aeruginosa [9]: 8 µg/mL (≈ 12.5 µM)
MBC Staphylococcus aureus, lipopeptides without TFA counter ion [10]: 8 µg/mL (≈ 12.5 µM)
MIC Staphylococcus aureus [10]: 8 µg/mL (≈ 12.5 µM)
MIC Staphylococcus aureus, lipopeptides without TFA counter ion [10]: 4 µg/mL (≈ 6.25 µM)
MBC Staphylococcus aureus [10]: 8 µg/mL (≈ 12.5 µM)
MIC Staphylococcus epidermidis [11]: 4 µg/mL (≈ 6.25 µM)
MBC Staphylococcus epidermidis [11]: 4 µg/mL (≈ 6.25 µM)
MBC Pseudomonas aeruginosa [13]: 8 µg/mL (≈ 12.5 µM)
MBC Proteus vulgaris [14]: >512 µg/mL
MFC Candida albicans, lipopeptides without TFA counter ion [15]: 128 µg/mL (≈ 200 µM)

CCCCCCCCCCCCCCCC(=O)N[C@@H](CCCCN)C(=O)N[C@@H](CCCCN)C(=O)N[C@@H](CCCCN)C(=O)N[C@@H](CCCCN)C(N)=O [C16-KKKK-NH2] (Palmitoyl-KKKK-NH2)
MFC Aspergillus brasiliensis [1]: 128 µg/mL (≈ 167 µM)
MIC Aspergillus brasiliensis [1]: 128 µg/mL (≈ 167 µM)
MIC Bacillus subtillis [2]: 4 µg/mL (≈ 5.21 µM)
MBC Bacillus subtillis [2]: 4 µg/mL (≈ 5.21 µM)
MFC Candida albicans [3]: 128 µg/mL (≈ 167 µM)
MIC Candida albicans [3]: 128 µg/mL (≈ 167 µM)
MIC Candida albicans, lipopeptides without TFA counter ion [3]: 128 µg/mL (≈ 167 µM)
MFC Candida tropicalis [4]: 128 µg/mL (≈ 167 µM)
MIC Candida tropicalis [4]: 128 µg/mL (≈ 167 µM)
MBC Enterococcus fecalis, lipopeptides without TFA counter ion [5]: 8 µg/mL (≈ 10.4 µM)
MIC Enterococcus fecalis [5]: 16 µg/mL (≈ 20.8 µM)
MIC Enterococcus fecalis, lipopeptides without TFA counter ion [5]: 4 µg/mL (≈ 5.21 µM)
MBC Enterococcus fecalis [5]: 16 µg/mL (≈ 20.8 µM)
MBC Escherichia coli, lipopeptides without TFA counter ion [6]: 8 µg/mL (≈ 10.4 µM)
MIC Escherichia coli [6]: 8 µg/mL (≈ 10.4 µM)
MIC Escherichia coli, lipopeptides without TFA counter ion [6]: 8 µg/mL (≈ 10.4 µM)
MBC Escherichia coli [6]: 8 µg/mL (≈ 10.4 µM)
MBC Klebsiella pneumoniae, lipopeptides without TFA counter ion [7]: 4 µg/mL (≈ 5.21 µM)
MIC Klebsiella pneumoniae [7]: 4 µg/mL (≈ 5.21 µM)
MIC Klebsiella pneumoniae, lipopeptides without TFA counter ion [7]: 4 µg/mL (≈ 5.21 µM)
MBC Klebsiella pneumoniae [7]: 8 µg/mL (≈ 10.4 µM)
MIC Proteus vulgaris [8]: >512 µg/mL
MIC Pseudomonas aeruginosa [9]: 8 µg/mL (≈ 10.4 µM)
MBC Staphylococcus aureus, lipopeptides without TFA counter ion [10]: 4 µg/mL (≈ 5.21 µM)
MIC Staphylococcus aureus [10]: 4 µg/mL (≈ 5.21 µM)
MIC Staphylococcus aureus, lipopeptides without TFA counter ion [10]: 4 µg/mL (≈ 5.21 µM)
MBC Staphylococcus aureus [10]: 8 µg/mL (≈ 10.4 µM)
MIC Staphylococcus epidermidis [11]: 4 µg/mL (≈ 5.21 µM)
MBC Staphylococcus epidermidis [11]: 4 µg/mL (≈ 5.21 µM)
MBC Pseudomonas aeruginosa [13]: 8 µg/mL (≈ 10.4 µM)
MBC Proteus vulgaris [14]: >512 µg/mL
MFC Candida albicans, lipopeptides without TFA counter ion [15]: 128 µg/mL (≈ 167 µM)
